Measured values: ChEMBL document CHEMBL1201862, “PubChem BioAssay data set” (2004)
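All cell lines were grown in 96-well plates and treated with compound for 48 hours. GI50 marks 50% less growth.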 Active and inactive are the calls of the source. Rule as the data show it: active = GI50 up to about 1.1 µM and inactive = higher.

Experiments:
Experiment in all cases: inhibition of tumour cell growth, NCI panel, 48 h
[1] = tested on: SNB-19
[2] = tested on: SK-MEL-5
[3] = tested on: NCI-H23
[4] = tested on: SW-620
[5] = tested on: HOP-62
[6] = tested on: A549
[7] = tested on: SK-MEL-28
[8] = tested on: OVCAR-8
[9] = tested on: HCT-116
[10] = tested on: OVCAR-4
[11] = tested on: SK-MEL-2
[12] = tested on: SF-295
[13] = tested on: UACC-62
[14] = tested on: SNB-75
[15] = tested on: ACHN
[16] = tested on: A498
[17] = tested on: LOX IMVI
[18] = tested on: MDA-MB-231
[19] = tested on: 786-0
[20] = tested on: SN12C
[21] = tested on: SF-539
[22] = tested on: COLO 205
[23] = tested on: CCRF-CEM
[24] = tested on: NCI-H460
[25] = tested on: MDA-N
[26] = tested on: UACC-257
[27] = tested on: NCI-H522
[28] = tested on: HT-29
[29] = tested on: M14
[30] = tested on: DU-145
[31] = tested on: NCI/ADR-RES
[32] = tested on: KM12
[33] = tested on: UO-31
[34] = tested on: OVCAR-3
[35] = tested on: BT-549
[36] = tested on: CAKI-1
[37] = tested on: HL-60
[38] = tested on: MOLT-4
[39] = tested on: Malme-3M
[40] = tested on: MCF7
[41] = tested on: TK-10
[42] = tested on: U-251
[43] = tested on: PC-3
[44] = tested on: Hs-578T
[45] = tested on: RPMI-8226
[46] = tested on: NCI-H226
[47] = tested on: IGROV-1
[48] = tested on: T47D
[49] = tested on: OVCAR-5
[50] = tested on: HCC 2998
[51] = tested on: K562
[52] = tested on: RXF 393
[53] = tested on: EKVX
[54] = tested on: HOP-92
[55] = tested on: SF-268
[56] = tested on: HCT-15
[57] = tested on: SK-OV-3
[58] = tested on: MDA-MB-435

O=C(O)C/C(=C\c1ccccc1)C(=O)O
GI50 [1]: > 100 µM (inactive)
GI50 [2]: > 100 µM (inactive)
GI50 [3]: > 100 µM (inactive)
GI50 [4]: > 100 µM (inactive)
GI50 [5]: > 100 µM (inactive)
GI50 [6]: > 100 µM (inactive)
GI50 [7]: > 100 µM (inactive)
GI50 [8]: > 100 µM (inactive)
GI50 [9]: > 100 µM (inactive)
GI50 [10]: > 100 µM (inactive)
GI50 [11]: > 100 µM (inactive)
GI50 [12]: > 100 µM (inactive)
GI50 [13]: > 100 µM (inactive)
GI50 [14]: > 100 µM (inactive)
GI50 [15]: > 100 µM (inactive)
GI50 [16]: > 100 µM (inactive)
GI50 [17]: > 100 µM (inactive)
GI50 [18]: > 100 µM (inactive)
GI50 [19]: > 100 µM (inactive)
GI50 [20]: > 100 µM (inactive)
GI50 [21]: > 100 µM (inactive)
GI50 [22]: > 100 µM (inactive)
GI50 [23]: > 100 µM (inactive)
GI50 [24]: > 100 µM (inactive)
GI50 [25]: > 100 µM (inactive)
GI50 [26]: > 100 µM (inactive)
GI50 [27]: > 100 µM (inactive)
GI50 [28]: > 100 µM (inactive)
GI50 [29]: > 100 µM (inactive)
GI50 [30]: > 100 µM (inactive)
GI50 [31]: > 100 µM (inactive)
GI50 [32]: > 100 µM (inactive)
GI50 [33]: > 100 µM (inactive)
GI50 [34]: > 100 µM (inactive)
GI50 [35]: > 100 µM (inactive)
GI50 [36]: > 100 µM (inactive)
GI50 [37]: > 100 µM (inactive)
GI50 [38]: > 100 µM (inactive)
GI50 [39]: > 100 µM (inactive)
GI50 [40]: > 100 µM (inactive)
GI50 [41]: > 100 µM (inactive)
GI50 [42]: > 100 µM (inactive)
GI50 [43]: > 100 µM (inactive)
GI50 [44]: > 100 µM (inactive)
GI50 [45]: > 100 µM (inactive)
GI50 [46]: > 100 µM (inactive)
GI50 [47]: > 100 µM (inactive)
GI50 [48]: > 100 µM (inactive)
GI50 [49]: > 100 µM (inactive)
GI50 [50]: > 100 µM (inactive)
GI50 [51]: 31.7 µM (inactive)
GI50 [52]: > 100 µM (inactive)
GI50 [53]: > 100 µM (inactive)
GI50 [54]: > 100 µM (inactive)
GI50 [55]: > 100 µM (inactive)
GI50 [56]: > 100 µM
GI50 [57]: > 100 µM (inactive)
GI50 [58]: > 100 µM (inactive)
